Consider twelve compounds from patent publication EP4755885A1 (Shanghai Hansoh Biomedical Co., Ltd., priority 2023, dated 2025).

One data set addresses T1, human GLP-1 receptor (Homo sapiens, UniProt P43220).
T1 construct: expressed in transfected cells
Briefly: cAMP production in cell line stably transformed with human GLP1 receptor, 2 h co-incubation (HTRF). It counts as cell-based. The conditions noted are these: CHO-K1/GLP-1R/CRE-luc cells, stimulation for 2 h, read-out: EC50. Here is the method:
The purpose of this assay example is to test the ability of the compound to activate the human GLP-1 receptor on cell surface. The EC50 for stimulated cAMP production after activation characterizes the ability of the compound to activate the human GLP-1 receptor.
In this experiment, the compound and cells were co-incubated for 2 h.
Frozen cell line CHO-K1/GLP-1R/CRE-luc stably transformed with human GLP1 receptor was removed from a liquid nitrogen tank, and was placed in a 37°C water bath for rapid thawing. The cells were resuspended in DMEM/F12 medium, and after centrifugation, were washed once. The cells were resuspended in an experimental buffer, i.e., DMEM/F12 medium containing 0.1% casein. After centrifugation, cell density was adjusted using the experimental buffer. The cells were plated onto a 384-well plate at a density of 1500 cells/5 µL/well. Then, each well was added with 2.5 µL of IBMX working solution prepared with the buffer, the final concentration of IBMX being 0.5 mM, and 2.5 µL of a serially diluted compound sample (starting from […], 3-fold dilution, 12 concentrations). The plate was centrifuged at 1000 rpm for 1 min, and was stood for incubation at 37°C for 2 h. Determination was performed using the Cisbio cAMP - Gs Dynamic kit. cAMP-d2 and anti-cAMP-Eu3+-Cryptate were diluted 18-fold and 20-fold respectively with cAMP Lysis & Detection Buffer, and were respectively mixed homogeneously. Each well was added with 5 µL of diluted cAMP-d2 solution, and the plate was centrifuged at 1000 rpm for 1 min, and shaken for 30 seconds for homogeneous mixing. Then, each well was added with 5 µL of diluted anti-cAMP-Eu3+-Cryptate solution, and the plate was centrifuged at 1000 rpm for 1 min and was incubated in the dark at room temperature for 1 h. HTRF signals were read using the Biotek Synergy H1 microplate reader, the excitation wavelength being 320 nm and the emission wavelengths being 620 nm and 665 nm.
The signal-to-signal ratio was calculated (665 nm/620 nm * 10,000). Nonlinear fitting between the signal-to-signal ratio and the sample concentration was performed in GraphPad Prism 10 using a four-parameter equation to obtain the EC50 value.
A general note: Cyclic AMP is a second messenger, typically raised through Gs and lowered through Gi signalling.

Data set [1] is described as follows: Pharmacokinetic evaluation in beagles, oral administration. It counts as in vivo. Conditions: p.o. 2 mg/kg, plasma; for MRT inf: read-out: MRT 0-∞. The procedure: Beagles were used as test animals to study the pharmacokinetic behavior of the compound of the present invention, administered orally at a dose of 2 mg/kg, in beagles (plasma).
Beagles, 3 per group, male.
(§1) Preparation of drug for oral administration: 10%PEG400/10%PG/80% glycine buffer (100 mM glycine, 64 Mm NaOH, […]) buffer.
Single PK: The compound of the present invention was weighed into a 100 mL glass bottle, and the solution was added. The pH was first adjusted with 1 M NaOH until the compound dissolves to obtain a clear solution, and then the pH was readjusted to pH 9.0-9.5 with 1 M HCl. Sonication was performed for 10 min to obtain a colorless clear solution having a concentration of 0.4 mg/mL.
Three beagles, male, respectively administered p.o. after fasting overnight, at a dose of 2 mg/kg and in an administration volume of 5 mL/kg.
Blood collection: 0.3 mL of blood was collected from the forelimb vein of the beagles before administration and at 0.25, 0.5, 1, 2, 4, 6, 8, and 24 h after administration. The blood samples were placed in EDTA-K2 anticoagulant tubes and centrifuged at 6000 rpm at 4°C for 6 min to separate plasma, which was stored at -80°C. The beagles were fed 4 h after administration.
(§2) • 1) 40 µL of a plasma sample was added with 160 µL of acetonitrile for precipitation, and after mixing, the mixture was centrifuged at 3500 × g for 5 to 20 min. • 2) The supernatant solution after treatment was taken for LC/MS/MS analysis of the concentration of the test compound. The LC/MS/MS analysis instrument was AB Sciex API 4000 Qtrap.
• Liquid phase condition: Shimadzu LC-20AD pump • Chromatographic column: Agilent ZORBAX XDB-C18 (50×2.1 mm, 3.5 µm) Mobile phase: Solution A was 0.1% formic acid aqueous solution, and Solution B was acetonitrile • Flow rate: 0.4 mL/min • Elution time: 0-4.0 min, the eluent was as follows: […]

Data set [2] can be described thus: Pharmacokinetic evaluation in mice, oral administration. It counts as in vivo, Balb/c mice. The conditions noted are these: p.o. 5 mg/kg, plasma; for AUC(0-inf) / AUC(0-t) / Cmax / Tmax / MRT inf: mouse, in vivo, po; for MRT inf: read-out: MRT 0-∞. Here is the method:
Balb/c mice were used as test animals to study the pharmacokinetic behavior of the compound of the present invention in mice (plasma) at a dose of 5 mg/kg administered orally and 1 mg/kg administered intravenously.
Balb/c mice, 3 per group, male.
as §1
10 ml of PEG400, 10 ml of PG, and 80 ml of (100 mM glycine, 64 Mm NaOH, pH = 9) were measured into a 100 ml volumetric flask, vortexed, mixed homogeneously, and sonicated to obtain a clear solution.
Single PK: An example compound was weighed into a 4 mL glass bottle. The solution was added, and sonication was performed for 10 min to obtain a colorless clear solution having a concentration of 0.5 mg/mL.
The solution was added, and sonication was performed for 10 min to obtain a colorless clear solution having a concentration of 0.5 mg/mL.
Three Balb/c mice, male, respectively administered p.o. after fasting overnight, at a dose of 5 mg/kg and in an administration volume of 10 mL/kg.
The blood samples were placed in EDTA-K2 anticoagulant tubes and centrifuged at 6000 rpm at 4°C for 6 min to separate plasma, which was stored at -80°C. The mice were fed 4 h after administration.
as §2
• Liquid phase condition: Shimadzu LC-20AD pump • Chromatographic column: Agilent ZORBAX XDB-C18 (50×2.1 mm, 3.5 µm) Mobile phase: Solution A was 0.1% formic acid aqueous solution, and Solution B was acetonitrile • Flow rate: 0.4 mL/min • Elution time: 0-4.0 min, the eluent was as follows:
Main pharmacokinetic parameters were calculated using WinNonlin 6.1.

Where [3] appears, read: not marked single PK (cassette PK).

T1 sequence (P43220 24-463): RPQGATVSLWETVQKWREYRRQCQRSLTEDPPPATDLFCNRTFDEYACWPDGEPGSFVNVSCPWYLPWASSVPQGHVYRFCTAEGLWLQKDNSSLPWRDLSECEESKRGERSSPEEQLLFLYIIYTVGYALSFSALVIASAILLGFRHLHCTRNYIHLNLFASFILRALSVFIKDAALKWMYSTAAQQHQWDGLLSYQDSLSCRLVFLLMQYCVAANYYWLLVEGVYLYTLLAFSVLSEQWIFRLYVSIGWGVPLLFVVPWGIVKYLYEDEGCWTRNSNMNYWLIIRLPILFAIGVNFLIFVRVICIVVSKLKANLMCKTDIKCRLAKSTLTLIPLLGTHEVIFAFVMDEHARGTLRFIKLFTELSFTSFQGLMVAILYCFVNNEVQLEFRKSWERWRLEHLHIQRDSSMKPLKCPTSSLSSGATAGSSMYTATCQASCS

`Cc1cc(-n2nc3c(c2-n2ccn(-c4ccc5c(cnn5C5CC5)c4F)c2=O)[C@H](C)N(C(=O)c2cc4cc([C@H]5CCOC(C)(C)C5)ccc4n2[C@@]2(c4noc(=O)[nH]4)C[C@@H]2COc2ccccc2)CC3)cc(C)c1F` [Example 187]: the EC50 at human GLP-1 receptor turned out to be 0.08 nM.

`Cc1cc(-n2nc3c(c2-n2ccn(-c4ccc5c(cnn5C5CC5)c4F)c2=O)[C@H](C)N(C(=O)c2cc4cc([C@H]5CCOC(C)(C)C5)ccc4n2[C@@]2(c4noc(=O)[nH]4)C[C@@H]2COC2CC2)CC3)cc(C)c1C#N` [Example 195]: the EC50 on human GLP-1 receptor is 0.035 nM.

For `Cc1cc(-n2nc3c(c2-n2ccn(-c4ccc5c(cnn5C5CC5)c4F)c2=O)[C@H](C)N(C(=O)c2cc4cc([C@H]5CCOC(C)(C)C5)ccc4n2[C@@]2(c4noc(=O)[nH]4)C[C@@H]2C#N)CC3)cc(C)c1F` [Example 190], at human GLP-1 receptor, the EC50 was determined as 0.04 nM.

Regarding `Cc1cc(-n2nc3c(c2-n2ccn(-c4cc5c6c(c4)CCC(=O)N6CCC5)c2=O)[C@H](C)N(C(=O)c2cc4cc([C@H]5CCOC(C)(C)C5)ccc4n2[C@@]2(c4noc(=O)[nH]4)C[C@@H]2COC2CC2)CC3)cc(C)c1F` [Example 200], the EC50 on human GLP-1 receptor was 0.09 nM.

As for “3-((3R,4r,5 S)-4-(5-((S)-2,2-dimethyltetrahydro-2H-pyran-4-yl)-2-((S)-3-(3-(4-fluoro-1-(methyl-d3)-1H-indazol-5-yl)-2-carbonyl-2,3-dihydro-1H-imidazol-1-yl)-2-(4-fluoro-3,5-dimethylbenzene)-4-methyl-4,5,6,7-tetrahydro-2H-pyrazolo[4,3-c]pyridine-5-carbonyl)-1H-indol-1-yl)tetrahydro-2H-pyran-4-yl)-1,2,4-oxadiazol-5(4H)-one [Example 338]”, at human GLP-1 receptor, the EC50 is 0.023 nM. Also, in data set [1], the “AUC 0-∞” value was 21417 ng·h/mL, the “AUC(0-t)” value came out at 20922 ng·h/mL, the Cmax is 3915 ng/mL and the “MRT 0-∞” value was 5.3 h. In data set [1], the Tmax is 1.3 h and the t1/2 is given as 4.4 h.

On to `Cc1cc(-n2nc3c(c2-n2ccn(-c4ccc5c(cnn5C5CC5)c4F)c2=O)[C@H](C)N(C(=O)c2cc4cc([C@H]5CCOC(C)(C)C5)ccc4n2[C@@]2(c4noc(=O)[nH]4)C[C@@H]2C)CC3)cc(C)c1C#N` [Example 49], for which the EC50 on human GLP-1 receptor amounted to 0.032 nM. Further, in data set [2] (single PK), the AUC(0-inf) came out at 16600 ng·h/mL, the AUC(0-t) is 15700 ng·h/mL, the highest level (Cmax) was 2430 ng/mL and the Tmax amounted to 1 h. In data set [2] (single PK), the MRT inf was 7.1 h and the tl/2 amounted to 6.5 h.

Consider `Cc1cc(-n2nc3c(c2-n2ccn(-c4cc5c6c(c4)OCCN6C(=O)CC5)c2=O)[C@H](C)N(C(=O)c2cc4cc([C@H]5CCOC(C)(C)C5)ccc4n2[C@@]2(c4noc(=O)[nH]4)C[C@@H]2C)CC3)cc(C)c1F` [Example 43], for which the EC50 at human GLP-1 receptor came out at 0.06 nM.

In the case of `Cc1cc(-n2nc3c(c2-n2ccn(-c4ccc5c(cnn5C5CC5)c4F)c2=O)[C@H](C)N(C(=O)c2cc4cc([C@H]5CCOC(C)(C)C5)ccc4n2[C@@]2(c4noc(=O)[nH]4)C[C@@H]2COC(F)F)CC3)cc(C)c1F` [Example 68], at human GLP-1 receptor, the EC50 is 0.016 nM.

With `Cc1cc(-n2nc3c(c2-n2ccn(-c4cc5c6c(c4)CCC(=O)N6CCC5)c2=O)[C@H](C)N(C(=O)c2cc4cc([C@H]5CCOC(C)(C)C5)ccc4n2[C@@]2(c4noc(=O)[nH]4)C[C@@H]2C)CC3)cc(C)c1F` [Example 34], the EC50 on human GLP-1 receptor is 0.11 nM. Besides, in data set [2] (single PK), the AUC(0-inf) was 13300 ng·h/mL, the AUC(0-t) was 12100 ng·h/mL, the highest level (Cmax) was 1510 ng/mL and the time to peak (Tmax) was determined as 1 h. In data set [2] (single PK), the MRT inf came to 9 h and the tl/2 was 7.8 h. Also, in data set [1] (dog, po), the AUC(0-inf) stood at 9390 ng·h/mL, the AUC(0-t) at 24 h turned out to be 9090 ng·h/mL, the half-life is 5.1 h and the MRT inf came to 5.7 h. Also, the Cmax in data set [1] (dog, po, read-out: Cmax) worked out at 1330 ng/mL. For the same compound, the Tmax in data set [1] (dog, po, read-out: tmax) came out at 1.7 h.

For `[2H]C([2H])(OC1CC1)[C@H]1C[C@]1(c1noc(=O)[nH]1)n1c(C(=O)N2CCc3nn(-c4cc(C)c(F)c(C)c4)c(-n4ccn(-c5ccc6c(cnn6C6CC6)c5F)c4=O)c3[C@@H]2C)cc2cc([C@H]3CCOC(C)(C)C3)ccc21` [Example 194], at human GLP-1 receptor, the half-maximal effective concentration (EC50) was 0.009 nM. In data set [2] (setting [3]), the AUC(0-inf) was determined as 32200 ng·h/mL, the AUC(0-t) turned out to be 19100 ng·h/mL, the Cmax was determined as 1840 ng/mL and the Tmax stood at 2.7 h. Further, in data set [2] (setting [3]), the MRT inf worked out at 26.6 h and the tl/2 was found to be 19.9 h. In data set [1] (dog, po), the AUC(0-inf) was 43700 ng·h/mL, the AUC(0-t) at 24 h came out at 40100 ng·h/mL, the half-life is 7.6 h and the MRT inf is 8.3 h. In addition, in data set [1] (dog, po, read-out: Cmax), the Cmax stood at 5830 ng/mL. In data set [1] (dog, po, read-out: tmax), the Tmax was determined as 1 h.

Consider `C#C[C@H]1C[C@]1(c1noc(=O)[nH]1)n1c(C(=O)N2CCc3nn(-c4cc(C)c(F)c(C)c4)c(-n4ccn(-c5cc6c7c(c5)CCC(=O)N7CCC6)c4=O)c3[C@@H]2C)cc2cc([C@H]3CCOC(C)(C)C3)ccc21` [Example 174], for which the EC50 on human GLP-1 receptor was determined as 0.15 nM.

For `C[C@H]1c2c(nn(-c3ccc(F)c(C4CC4)c3)c2-n2ccn(-c3ccc4c(c3)C3(CC3)C(=O)N4C)c2=O)CCN1C(=O)c1cc2cc([C@H]3CCOC(C)(C)C3)ccc2n1[C@@]1(c2noc(=O)[nH]2)C[C@@H]1C` [Example 32], in data set [2] (setting [3]), the AUC(0-inf) was found to be 9320 ng·h/mL, the AUC(0-t) came to 8990 ng·h/mL, the Cmax was found to be 1040 ng/mL and the Tmax is 1 h. Also, in data set [2] (setting [3]), the MRT inf turned out to be 6.7 h and the tl/2 amounted to 5.3 h.

For orientation: EC50 means the concentration at which the effect is half-maximal. The AUC(0-t) is exposure summed from dosing to a finite time, without extrapolation to infinity. A high value points to high exposure. In general, Cmax refers to the peak of the concentration-time curve. For orientation: Tmax means the time at which the peak concentration occurs. The AUC(0-inf) is the area under the concentration-time curve extrapolated to infinity. A low value points to low exposure. The term half-life denotes how long it takes for the measured level to halve. A high value points to slow decline.
